This data set is described as follows: pH, calcium and phosphate contents of the solution surrounding the cement during the setting process. The class given is physicochemical. How it is done: The ion concentrations of the solutions surrounding the cement were determined in that during the setting process samples of the solution were taken regularly and analyzed with regard to pH value (glass electrode), calcium contents and phosphate contents (photometric method), in accordance with the procedure described in connection with Example 2. No deviations into cell and tissue damaging pH ranges (pH<7 and pH>8) were measured. The determined calcium and phosphate ion concentrations were also at a level that is well tolerated by cells and tissue.
The ion concentrations of the solution surrounding the cement were determined in that during the setting process samples of the solution were taken regularly and analyzed with regard to pH value (glass electrode), calcium contents and phosphate contents (photometric method). […]
The ion concentration of the solution surrounding the bone cement was determined in that during the setting process regularly samples of the solution were taken and analyzed with regard to pH value (glass electrode), calcium contents and phosphate contents (photometric method). […] The determined calcium and phosphate ion concentrations were also at a level that is well tolerated by cells and tissue. […]

Each structure is given as a SMILES string.

On to `Cc1ncc(C[n+]2csc(CCO[P@](=O)(O)OP(=O)(O)O)c2C)c(N)n1` [Thiamine pyrophosphate, thiamine pyrophosphate], for which the “calcium concentration of the surrounding medium” value is reported as “approximately 2.5 mmol/l”.

These data come from patent US20050217538A1, “Modified Calcium Phosphate Bone Cement” (TECHNISCHE UNIVERSITAT DRESDEN, priority 2004, published 2005).
